Several values for one entry are separate records, joined by “and”; a condition that tells them apart may be missing. Identical values can stand only once. Inconclusive results and toxic doses are left out.
System: L1210 leukemia ip in BDF1 mice, survival T/C
Test: NCI In Vivo Anticancer Drug Screen. Data for tumor model L1210 Leukemia (intraperitoneal) in B6D2F1 (BDF1) mice
Details: endpoint: mean survival time, higher = longer survival
Procedure, shortened: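 Survival endpoint. Drug-treated group vs vehicle group, expressed as T divided by C. Tumor passaged by transplantation.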

[1] = dose: 100.0 mg/kg/injection, schedule: Q01DX009 (ip), vehicle: saline with Tween-80
[2] = dose: 100.0 mg/kg/injection, schedule: Q04DX003 (ip), vehicle: saline with Tween-80
[3] = dose: 200.0 mg/kg/injection, schedule: Q01DX009 (ip), vehicle: saline with Tween-80
[4] = dose: 200.0 mg/kg/injection, schedule: Q04DX003 (ip), vehicle: saline with Tween-80
[5] = dose: 400.0 mg/kg/injection, schedule: Q01DX009 (ip), vehicle: saline with Tween-80
[6] = dose: 400.0 mg/kg/injection, schedule: Q04DX003 (ip), vehicle: saline with Tween-80
[7] = dose: 50.0 mg/kg/injection, schedule: Q01DX001 (ip), vehicle: saline
[8] = dose: 100.0 mg/kg/injection, schedule: Q01DX001 (ip), vehicle: saline
[9] = dose: 200.0 mg/kg/injection, schedule: Q01DX001 (ip), vehicle: saline
[10] = dose: 400.0 mg/kg/injection, schedule: Q01DX001 (ip), vehicle: saline
[11] = dose: 100.0 mg/kg/injection, schedule: Q04DX003 (ip), vehicle: Klucel (hydroxypropylcellulose) (HPC)
[12] = dose: 200.0 mg/kg/injection, schedule: Q04DX003 (ip), vehicle: Klucel (hydroxypropylcellulose) (HPC)
[13] = dose: 400.0 mg/kg/injection, schedule: Q04DX003 (ip), vehicle: Klucel (hydroxypropylcellulose) (HPC)
[14] = dose: 100.0 mg/kg/injection, schedule: Q01DX009 (ip), vehicle: Klucel (hydroxypropylcellulose) (HPC)
[15] = dose: 200.0 mg/kg/injection, schedule: Q01DX009 (ip), vehicle: Klucel (hydroxypropylcellulose) (HPC)
[16] = dose: 400.0 mg/kg/injection, schedule: Q01DX009 (ip), vehicle: Klucel (hydroxypropylcellulose) (HPC)
[17] = dose: 25.0 mg/kg/injection, schedule: Q01DX009 (ip), vehicle: Klucel (hydroxypropylcellulose) (HPC)
[18] = dose: 50.0 mg/kg/injection, schedule: Q01DX009 (ip), vehicle: Klucel (hydroxypropylcellulose) (HPC)
[19] = dose: 100.0 mg/kg/injection, schedule: Q04DX003 (ip), vehicle: saline
[20] = dose: 200.0 mg/kg/injection, schedule: Q04DX003 (ip), vehicle: saline
[21] = dose: 400.0 mg/kg/injection, schedule: Q04DX003 (ip), vehicle: saline

SMILES: CC(C)=CCC/C(C)=C/CN1C(=O)CC(C)=C(C)C1=O
- T/C [1]: 97 % of control
- T/C [2]: 95 % of control
- T/C [3]: 95 % of control
- T/C [4]: 104 % of control
- T/C [5]: 95 % of control
- T/C [6]: 95 % of control

SMILES: O=C(CCCC(=O)N/N=C/c1ccccc1C(=O)O)N/N=C\c1ccccc1C(=O)O
- T/C [7]: 104 % of control
- T/C [8]: 102 % of control
- T/C [9]: 102 % of control
- T/C [10]: 98 % of control

SMILES: OCCCNc1nc2ccc(Cl)cc2c2ccccc12
- T/C [11]: 116 % of control
- T/C [12]: 107 % of control
- T/C [13]: 108 % of control

SMILES: CCOC(=O)c1cccc(N(CCO)CCO)c1
- T/C [7]: 103 % of control
- T/C [8]: 97 % of control
- T/C [9]: 103 % of control
- T/C [10]: 103 % of control

SMILES: CC[C@@]1(O)C(=O)OCc2c1cc1n(c2=O)Cc2cc3cc(OC)ccc3nc2-1
- T/C (dose: 0.36 mg/kg/injection, schedule: Q01DX001 (ip), vehicle: saline): 114 % of control
- T/C (dose: 0.55 mg/kg/injection, schedule: Q01DX001 (ip), vehicle: saline): 122 % of control
- T/C (dose: 0.83 mg/kg/injection, schedule: Q01DX001 (ip), vehicle: saline): 120 % of control
- T/C (dose: 0.97 mg/kg/injection, schedule: Q01DX009 (ip), vehicle: saline): 203 % of control
- T/C (dose: 1.4 mg/kg/injection, schedule: Q01DX009 (ip), vehicle: saline): 225 % of control
- T/C (dose: 2.2 mg/kg/injection, schedule: Q01DX009 (ip), vehicle: saline): 97 % of control
- T/C (dose: 2.5 mg/kg/injection, schedule: Q01DX001 (ip), vehicle: saline): 162 % of control
- T/C (dose: 4.4 mg/kg/injection, schedule: Q01DX001 (ip), vehicle: saline): 160 % of control
- T/C (dose: 5.0 mg/kg/injection, schedule: Q01DX001 (ip), vehicle: saline): 176 % of control
- T/C (dose: 6.6 mg/kg/injection, schedule: Q01DX001 (ip), vehicle: saline): 178 % of control
- T/C (dose: 10.0 mg/kg/injection, schedule: Q01DX001 (ip), vehicle: saline): 172 % of control and 250 % of control
- T/C (dose: 15.0 mg/kg/injection, schedule: Q01DX001 (ip), vehicle: saline): 122 % of control
- T/C (dose: 20.0 mg/kg/injection, schedule: Q01DX001 (ip), vehicle: saline): 112 % of control
- T/C (dose: 36.0 micrograms/kg/injection, schedule: Q01DX009 (ip), vehicle: saline): 95 % of control
- T/C (dose: 56.0 micrograms/kg/injection, schedule: Q01DX009 (ip), vehicle: saline): 104 % of control
- T/C (dose: 84.0 micrograms/kg/injection, schedule: Q01DX009 (ip), vehicle: saline): 115 % of control
- T/C (dose: 127.0 micrograms/kg/injection, schedule: Q01DX009 (ip), vehicle: saline): 121 % of control
- T/C (dose: 287.0 micrograms/kg/injection, schedule: Q01DX009 (ip), vehicle: saline): 123 % of control
- T/C (dose: 430.0 micrograms/kg/injection, schedule: Q01DX009 (ip), vehicle: saline): 117 % of control
- T/C (dose: 646.0 micrograms/kg/injection, schedule: Q01DX009 (ip), vehicle: saline): 150 % of control

SMILES: Cc1cnc(SCc2ccccc2Cl)[nH]c1=O
- T/C (dose: 25.0 mg/kg/injection, schedule: Q01DX Z (ip), vehicle: methylcellulose (MC)): 90 % of control
- T/C (dose: 50.0 mg/kg/injection, schedule: Q01DX Z (ip), vehicle: methylcellulose (MC)): 100 % of control

SMILES: CCCCSC1=CC(=O)c2ccccc2C1=O
- T/C (dose: 12.5 mg/kg/injection, schedule: Q04DX003 (ip), vehicle: Klucel (hydroxypropylcellulose) (HPC)): 104 % of control

SMILES: CCCCCCCCCCCCCCCCCCNC(=O)N(CC)c1ccccc1
- T/C [14]: 101 % of control
- T/C [11]: 93 % of control
- T/C [15]: 98 % of control
- T/C [12]: 101 % of control
- T/C [16]: 106 % of control
- T/C [13]: 92 % of control

SMILES: O=[N+]([O-])CC(NNC(C[N+](=O)[O-])C(Cl)(Cl)Cl)C(Cl)(Cl)Cl (stereo unspecified)
- T/C [1]: 96 % of control
- T/C [2]: 89 % of control
- T/C [3]: 91 % of control
- T/C [4]: 94 % of control
- T/C [6]: 90 % of control

SMILES: Cc1cccnc1NC(=O)/C=C/C(=O)O
- T/C (dose: 12.5 mg/kg/injection, schedule: Q01DX009 (ip), vehicle: saline): 94 % of control
- T/C (dose: 25.0 mg/kg/injection, schedule: Q01DX009 (ip), vehicle: saline): 100 % of control
- T/C (dose: 50.0 mg/kg/injection, schedule: Q01DX009 (ip), vehicle: saline): 94 % of control

SMILES: c1ccc([P+](c2ccccc2)(c2ccccc2)c2ccc([P+](c3ccccc3)(c3ccccc3)c3ccccc3)c3ccccc23)cc1
- T/C (dose: 0.6 mg/kg/injection, schedule: Q04DX003 (ip), vehicle: Klucel (hydroxypropylcellulose) (HPC)): 92 % of control
- T/C (dose: 1.0 mg/kg/injection, schedule: Q04DX003 (ip), vehicle: Klucel (hydroxypropylcellulose) (HPC)): 92 % of control
- T/C (dose: 1.5 mg/kg/injection, schedule: Q04DX003 (ip), vehicle: Klucel (hydroxypropylcellulose) (HPC)): 92 % of control
- T/C (dose: 2.25 mg/kg/injection, schedule: Q04DX003 (ip), vehicle: Klucel (hydroxypropylcellulose) (HPC)): 92 % of control
- T/C (dose: 3.12 mg/kg/injection, schedule: Q04DX003 (ip), vehicle: Klucel (hydroxypropylcellulose) (HPC)): 96 % of control
- T/C (dose: 6.25 mg/kg/injection, schedule: Q04DX003 (ip), vehicle: Klucel (hydroxypropylcellulose) (HPC)): 94 % of control

SMILES: Cc1[nH]c2ccccc2c1C
- T/C [14]: 104 % of control
- T/C [15]: 87 % of control

SMILES: COc1ccc(OC(=O)Nc2c(C)cccc2C)cc1
- T/C [1]: 95 % of control
- T/C [2]: 98 % of control
- T/C [3]: 91 % of control
- T/C [4]: 105 % of control
- T/C [5]: 94 % of control
- T/C [6]: 100 % of control

SMILES: CC(=O)NCC1CCCCC1
- T/C [17]: 98 % of control
- T/C (dose: 25.0 mg/kg/injection, schedule: Q04DX003 (ip), vehicle: Klucel (hydroxypropylcellulose) (HPC)): 100 % of control
- T/C [18]: 92 % of control
- T/C (dose: 50.0 mg/kg/injection, schedule: Q04DX003 (ip), vehicle: Klucel (hydroxypropylcellulose) (HPC)): 102 % of control
- T/C [14]: 110 % of control
- T/C [11]: 105 % of control

SMILES: O=C(CF)[O][Sb]([O]C(=O)CF)([c]1ccccc1)([c]1ccccc1)[c]1ccccc1
- T/C (dose: 5.0 mg/kg/injection, schedule: Q04DX003 (ip), vehicle: saline with Tween-80): 92 % of control
- T/C (dose: 10.0 mg/kg/injection, schedule: Q04DX003 (ip), vehicle: saline with Tween-80): 101 % of control
- T/C (dose: 20.0 mg/kg/injection, schedule: Q04DX003 (ip), vehicle: saline with Tween-80): 106 % of control

SMILES: CCOC(=O)/C=C(/C)OC(C)=O
- T/C [14]: 100 % of control
- T/C [11]: 101 % of control
- T/C [15]: 98 % of control
- T/C [12]: 95 % of control
- T/C [16]: 100 % of control
- T/C [13]: 95 % of control

SMILES: Cc1ccc[n+](CCC(N)=O)c1
- T/C (dose: 100.0 mg/kg/injection, schedule: Q01DX009 (ip), vehicle: saline): 92 % of control
- T/C [19]: 102 % of control
- T/C (dose: 200.0 mg/kg/injection, schedule: Q01DX009 (ip), vehicle: saline): 93 % of control
- T/C [20]: 102 % of control
- T/C (dose: 400.0 mg/kg/injection, schedule: Q01DX009 (ip), vehicle: saline): 97 % of control
- T/C [21]: 94 % of control

SMILES: CCOC(=O)c1ccc(NC(=O)Nc2cc(Cl)ccc2C)cc1
- T/C [17]: 103 % of control
- T/C [18]: 108 % of control
- T/C [14]: 87 % of control and 89 % of control
- T/C [15]: 98 % of control

SMILES: NC(CC(=O)O)c1cccs1 (stereo unspecified)
- T/C (dose: 100.0 mg/kg/injection, schedule: Q04DX002 (ip), vehicle: saline): 95 % of control
- T/C (dose: 200.0 mg/kg/injection, schedule: Q04DX002 (ip), vehicle: saline): 95 % of control
- T/C (dose: 400.0 mg/kg/injection, schedule: Q04DX002 (ip), vehicle: saline): 102 % of control

SMILES: COc1ccccc1NCc1cccc([N+](=O)[O-])c1
- T/C [14]: 100 % of control
- T/C [19]: 100 % of control
- T/C [15]: 94 % of control
- T/C [20]: 94 % of control
- T/C [21]: 86 % of control
